# Source: patent US20090137652A1, “METHODS FOR NEUROPROTECTION” (priority 2005, published 2009)
# Several values for one entry are separate records, joined by “and”; a condition that tells them apart may be missing. Equal values may be shown once.
# What was measured:
# [1] = system: rats subjected to li-pilo SE; assay: Quantification of cell densities 14 days after lithium-pilocarpine SE (Example 2); type: in vivo, rat; settings: 14 days after SE
# Procedure: All rats received lithium chloride (3 meq/kg, i.p., Sigma, St Louis, Mo., U.S.A.) and about 20 h later, all animals received also methylscopolamine bromide (1 mg/kg, s.c., Sigma) that was administered to limit the peripheral effects of the convulsant. SE was induced by injecting pilocarpine hydrochloride (25 mg/kg, s.c., Sigma) 30 min after methylscopolamine. The effects of increasing doses of TC (RWJ) were studied in 5 groups of rats. […] The control group received vehicle instead of pilocarpine and TC.
# At the moment, neuronal counting is still in progress in the second group of animals studied for epileptogenesis and long-term counting and the data concerning that part of the study will not be included in the present report. For neuronal counting, animals were deeply anesthetized with […] pentobarbital (Dolethal®, Vetoquinol, Lure, France). Brains were then removed and frozen. Serial 20 μm slices were cut in a cryostat, air-dried during several days before thionine staining. […] The grid of counting was placed on a well defined area of the cerebral structure of interest and counting was carried out with a microscopic enlargement of 200- or 400-fold defined for each single cerebral structure. Cell counts were performed twice on each side of three adjacent sections for each region by a single observer unaware of the animal's treatment. The number of cells obtained in the 12 counted fields in each cerebral structure was averaged. This procedure was used to minimize the potential errors that could result from double counting leading to overestimation of cell numbers. […] Counts involved only neurons with cell bodies larger than 10 μm. Cells with small cell bodies were considered as glial cells and were not counted.
# For neuronal damage and epileptogenesis, statistical analysis between groups was performed by means of a one-way analysis of variance followed by a post-hoc Dunnett or Fisher test using the Statistica software.
# [2] = system: rats subjected to Li-pilo induced SE; assay: EEG patterns during lithium-pilocarpine SE (Example 1); type: in vivo, rat; settings: DZP-treated rats (2 mg/kg i.m.)
# Procedure: Male Wistar rats weighing 225-250 g, provided by Janvier Breeding Center (Le Genest-St-lste, France) were housed under controlled standard conditions (light/dark cycle, 7.00 a.m.-7.00 p.m. lights on), with food and water available ad libitum. All animal experimentation was performed in accordance with the rules of the European Communities Council Directive of Nov. 24, 1986 (86/609/EEC), and the French Department of Agriculture (License No 67-97). For electrode implantation, rats were anesthetized by an i.p. injection of 2.5 mg/kg diazepam (DZP, Valium, Roche, France) and […] ketamine chlorhydrate (Imalgene 1000, Rhone Merrieux, France). Four single-contact recording electrodes were placed on the skull, over the parietal cortex, two on each side.
# All rats received lithium chloride (3 meq/kg, i.p., Sigma, St Louis, Mo., U.S.A.); about 20 h later, animals were placed into plexiglas boxes, in order to record baseline cortical EEG. Methylscopolamine bromide (1 mg/kg, s.c., Sigma) was administered to limit the peripheral effects of the convulsant. SE was induced by injecting pilocarpine hydrochloride (25 mg/kg, s.c., Sigma) 30 min after methyl-scopolamine. The bilateral EEG cortical activity was recorded during the whole duration of SE and behavioral changes were noted.
# The effects of increasing doses of the test compound were studied on 3 groups of rats. The animals of the first group received 10 mg/kg of the test compound, i.p., 1 h after the onset of SE (pilo-TC10) while the animals of groups 2 and 3 received 30 and 60 mg/kg of the test compound (pilo-TC30 and pilo-TC60), respectively.
# Another group was injected with 2 mg/kg diazepam (DZP, i.m.) at 1 h after the onset of SE. This is a standard treatment to improve animals survival after SE (pilo-DZP). The control group received saline instead of pilocarpine and the test compound (saline-saline). The pilo-test compound rats surviving SE were then injected about 10 h after the first test compound injection with a second i.p. injection of the same dose of the test compound and were maintained under a twice daily treatment with the test compound for 6 additional days. Pilo-DZP received a second injection of 1 mg/kg DZP on the day of SE at about 10 h after the first one. Thereafter, Pilo-DZP and saline-saline rats received twice daily an equivalent volume of saline.
# The effects of the test compound on the EEG and on the latency to occurrence of SRS were investigated by daily video recording of the animals for 10 h per day and the recording of the electrographic activity twice a week for 8 h.
# [3] = DZP rats compared to control rats
# [4] = DZP rats compared to control saline-treated rats
# [5] = pilo-DZP (2.5 mg/kg i.m.), n = 7
compound,measurement,setting,value
"CN1C(=O)CN=C(c2ccccc2)c2cc(Cl)ccc21 [DZP, diazepam, reference compound]","neurons surviving, all parts of the entorhinal cortex",[1]; DZP group,27-81%
same,"neuronal damage, amygdala central nucleus",[1]; [3],no neuronal damage
same,"neuronal drop out, CA1 region of the hippocampus (pyramidal cell layer)",[1]; [3],85%
same,"neuronal drop out, amygdala basolateral nucleus",[1]; [3],73%
same,"neuronal drop out, amygdala medial dorsal anterior nucleus",[1]; [3],53%
same,"neuronal drop out, thalamus central medial nucleus",[1]; [3],34%
same,"neuronal drop out, thalamus dorsolateral medial dorsal nucleus",[1]; [3],40%
same,"neuronal drop out, thalamus mediodorsal central nucleus",[1]; [3],18%
same,"neuronal drop out, thalamus mediodorsal lateral nucleus",[1]; [3],24%
same,"neuronal loss, CA3 region",[1]; [3],40%
same,"neuronal loss, amygdala medial ventral posterior nucleus",[1]; [3],38%
same,"neuronal loss, hilus of the dentate gyrus",[1]; [3],65% and 66%
same,"neuronal loss, thalamus mediodorsal nucleus",[1]; [3],49%
same,"neuronal loss, ventral lateral division of the dorsolateral thalamic nucleus",[1]; [3],90%
same,"damage, dorsal entorhinal cortex layer II",[1]; [4],18%
same,"damage, dorsal entorhinal cortex layers III-IV",[1]; [4],24%
same,"damage, ventral entorhinal cortex layer II",[1]; [4],22% and 19%
same,"damage, ventral entorhinal cortex layers III/IV",[1]; [4],74% and 73%
same,"neuronal loss, piriform cortex dorsal layer II",[1]; [4],66%
same,"neuronal loss, piriform cortex layer III",[1]; [4],94%
same,"neuronal loss, piriform cortex ventral layer II",[1]; [4],89%
same,"number of neuronal cell bodies, Amygdala, Basolateral",[1]; [5],12.8 ± 5.3
same,"number of neuronal cell bodies, Amygdala, Medial, dorsal anterior",[1]; [5],40.0 ± 2.5
same,"number of neuronal cell bodies, Amygdala, Medial, ventral posterior",[1]; [5],21.8 ± 2.4
same,"number of neuronal cell bodies, Cerebral cortex, Entorhinal, layer II, dorsal",[1]; [5],23.5 ± 0.7
same,"number of neuronal cell bodies, Cerebral cortex, Entorhinal, layer II, ventral",[1]; [5],21.7 ± 1.3
same,"number of neuronal cell bodies, Cerebral cortex, Entorhinal, layer III/IV, dorsal",[1]; [5],22.3 ± 0.5
same,"number of neuronal cell bodies, Cerebral cortex, Entorhinal, layer III/IV, ventral",[1]; [5],7.7 ± 2.3
same,"number of neuronal cell bodies, Cerebral cortex, Piriform, layer II, dorsal",[1]; [5],12.6 ± 4.2
same,"number of neuronal cell bodies, Cerebral cortex, Piriform, layer II, ventral",[1]; [5],3.6 ± 0.7
same,"number of neuronal cell bodies, Cerebral cortex, Piriform, layer III",[1]; [5],1.2 ± 1.2
same,"number of neuronal cell bodies, Hippocampus, CA1 area",[1]; [5],10.9 ± 1.9
same,"number of neuronal cell bodies, Hippocampus, CA3 area",[1]; [5],31.3 ± 2.9
same,"number of neuronal cell bodies, Hippocampus, Hilus",[1]; [5],33.5 ± 3.0
same,"number of neuronal cell bodies, Thalamus, Central medial",[1]; [5],74.2 ± 7.4
same,"number of neuronal cell bodies, Thalamus, Dorsolateral, medial, dorsal",[1]; [5],61 ± 6.3
same,"number of neuronal cell bodies, Thalamus, Dorsolateral, ventral lateral",[1]; [5],9.7 ± 2.5
same,"number of neuronal cell bodies, Thalamus, Mediodorsal central",[1]; [5],26.3 ± 1.8
same,"number of neuronal cell bodies, Thalamus, Mediodorsal lateral",[1]; [5],19.6 ± 0.8
same,"number of neuronal cell bodies, Thalamus, Mediodorsal medial",[1]; [5],16.4 ± 1.9
same,EEG activity in the cortex and the hippocampus by 6-7 h of SE,[2],spiking activity was still present
